These results are taken from patent US9403850B2, “Beta-lactamase inhibitors” (priority 2013, dated 2016).

For test [1], the target named is T1, SHV-5 (Klebsiella pneumoniae, UniProt P0A3M1).
T1 construct: expressed as native untagged proteins; made in house; host or cells: E. coli BL21(DE3)
The test can be described thus: β-Lactamase enzyme inhibition assay, SHV-5 (cefotaxime substrate). It counts as biochemical. The following applies: 15 min preincubation at 37° C., read-out: IC50, Class A SHV-5. As to the method: (§1) For SHV-5, Kpc-2, p99AmpC and OXA-1 β-lactamases, E. coli BL21(DE3) bacterial cells carrying expression plasmids (expressed as native untagged proteins) for the individual β-lactamases were grown in 1 L of Superbroth (Teknova Inc. Hollister, CA) supplemented with 100 μg/ml kanamycin selection and 1×5052 (0.5% glycerol, 0.05% glucose and 0.2% α-lactose) at 35° C. for 18-20 hours. Cells were harvested by centrifugation (4,000×g, 4° C., 20 min), resuspended in 50 ml of 10 mM HEPES pH 7.5 (1/20 of the initial volume). The cells were lysed by sonication (5 pulses of 45 seconds) at 45 W on ice. The lysates were clarified by centrifugation at 10,000×g for 40 minutes at 4° C. […] Active fractions were pooled concentrated, quantitated by BCA protein determination (Thermo Scientific, Rockford, Ill.), dialyzed into PBS and frozen at −80° C. in 20% glycerol until use.
(§2) An equal volume of diluted enzyme stock was added, and the plates were incubated at 37° C. for 15 min. […] Absorbance at 486 nm was immediately monitored for 10 min using a Biotek Powerwave XS2 microplate spectrophotometer using the GEN5 softweare package (Biotek Instruments, Winooski Vt.). […] Maximum rates of hydrolysis were compared to those in control wells (without inhibitors), and percentages of enzyme inhibition were calculated for each concentration of inhibitor. […]

Test [2] has as its target T2, KPC-2 (Klebsiella pneumoniae, UniProt Q9F663).
T2 construct: expressed as native untagged proteins; made in house; host or cells: E. coli BL21(DE3)
The test can be described thus: β-Lactamase enzyme inhibition assay, KPC-2 (imipenem substrate). It counts as biochemical. Conditions: 15 min preincubation at 37° C., read-out: IC50, Class A KPC-2. As for the experimental part: as §1, §2

Test [3] addresses T3, VIM-2 (Escherichia coli, UniProt Q5U7L7).
T3 construct: made in house; host or cells: E. coli BL21(DE3)
The test is described as follows: β-Lactamase enzyme inhibition assay, VIM-2 (nitrocefin substrate). It counts as biochemical. Conditions: nitrocefin substrate 100 μM, 15 min preincubation at 37° C.; read-out: IC50, Class B VIM-2. The procedure, abridged:
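Purified VIM-2 (Q sepharose anion exchange, HEPES pH 7.5) preincubated with inhibitor 15 min at 37° C. Nitrocefin added at 100 μM final; absorbance at 486 nm monitored 10 min. IC50 from inhibition of initial hydrolysis rate versus inhibitor-free controls.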

For test [4], the target named is T4, p99 AmpC (Enterobacter cloacae, UniProt P05364).
T4 construct: expressed as native untagged proteins; made in house; host or cells: E. coli BL21(DE3)
T4 sequence (P05364 21-381): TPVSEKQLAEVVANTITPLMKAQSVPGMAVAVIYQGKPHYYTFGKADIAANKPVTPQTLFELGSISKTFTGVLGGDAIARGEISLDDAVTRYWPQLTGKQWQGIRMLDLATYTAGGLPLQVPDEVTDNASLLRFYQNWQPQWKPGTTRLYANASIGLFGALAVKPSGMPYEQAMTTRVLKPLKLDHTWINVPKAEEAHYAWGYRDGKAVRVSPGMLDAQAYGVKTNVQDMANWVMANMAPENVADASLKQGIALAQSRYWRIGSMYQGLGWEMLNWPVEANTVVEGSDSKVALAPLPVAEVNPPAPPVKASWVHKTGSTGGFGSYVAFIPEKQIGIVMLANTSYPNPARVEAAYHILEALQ
The test can be described thus: β-Lactamase enzyme inhibition assay, p99 AmpC (nitrocefin substrate). Format: biochemical. The following applies: nitrocefin substrate 100 μM, 15 min preincubation at 37° C.; read-out: IC50, Class C AmpC. As to the method:
as §1, §2

For test [5], the target named is T5, OXA-1 (Escherichia coli, UniProt P13661).
T5 construct: expressed as native untagged proteins; made in house; host or cells: E. coli BL21(DE3)
T5 sequence (P13661 26-276): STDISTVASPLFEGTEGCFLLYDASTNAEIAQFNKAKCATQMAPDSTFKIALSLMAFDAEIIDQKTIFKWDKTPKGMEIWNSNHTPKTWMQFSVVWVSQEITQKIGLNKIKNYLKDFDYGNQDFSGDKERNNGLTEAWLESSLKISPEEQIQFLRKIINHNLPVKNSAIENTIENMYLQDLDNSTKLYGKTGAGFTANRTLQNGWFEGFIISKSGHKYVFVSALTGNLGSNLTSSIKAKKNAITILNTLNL
The test can be described thus: β-Lactamase enzyme inhibition assay, OXA-1 (nitrocefin substrate). It counts as biochemical. Conditions: nitrocefin substrate 100 μM, 15 min preincubation at 37° C.; read-out: IC50, Class D OXA-1. As to the method:
as §1, §2

The test system of test [6] is E. coli ESBL4 expressing CTX-M-15. The test can be described thus: Broth microdilution MIC assay, partner ceftazidime.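 Also: ceftazidime held fixed at 4 µg/mL.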 Format: cell-based. Conditions: Escherichia coli, read-out: MIC of Exemplary Compounds in presence of fixed β-lactams, Fixed CAZ, E. coli ESBL4 CTX-M-15.
Test [7] concerns E. cloacae 144200 expressing Class C P99 AmpC. The test is described as follows: Broth microdilution MIC assay, partner ceftazidime.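 Also: ceftazidime held fixed at 4 µg/mL.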 Conditions: Enterobacter cloacae, read-out: MIC of Exemplary Compounds in presence of fixed β-lactams, Fixed CAZ, E. cl. 144200 p99 AmpC. Format: cell-based.
For test [8], the system named is K. pneumoniae 156319 expressing KPC-3. The test can be described thus: Broth microdilution MIC assay, partner meropenem. Format: cell-based. Conditions: Klebsiella pneumoniae, read-out: MIC of Exemplary Compounds in presence of fixed β-lactams, Fixed Mero, K.P. 156319 KPC-3.
Test [9] deals with P. aeruginosa Ps296 expressing VIM-2. The test is described as follows: Broth microdilution MIC assay, partner meropenem. It counts as cell-based. Conditions: Pseudomonas aeruginosa, read-out: MIC of Exemplary Compounds in presence of fixed β-lactams, Fixed Mero, P. aerug. Ps296 VIM-2.
Test [10] deals with K. pneumoniae A-1797 expressing KPC-2 and VIM-4. The test is described as follows: Broth microdilution MIC assay, partner meropenem. Format: cell-based. The following applies: Klebsiella pneumoniae, read-out: MIC of Exemplary Compounds in presence of fixed β-lactams, Fixed Mero, K.P. A-1797 KPC-2 VIM-4.
Test [11] concerns S. aureus MSSA-7 producing penicillinase PC-1. The test can be described thus: Broth microdilution MIC assay, partner piperacillin. Format: cell-based. Conditions: Staphylococcus aureus, fixed piperacillin 4 μg/mL, read-out: MIC of Exemplary Compounds in presence of fixed β-lactams, Fixed Pip, S. aureus MSSA-7 PC-1.

Structures are written as SMILES.

T2 sequence (Q9F663 25-293 limits assumed): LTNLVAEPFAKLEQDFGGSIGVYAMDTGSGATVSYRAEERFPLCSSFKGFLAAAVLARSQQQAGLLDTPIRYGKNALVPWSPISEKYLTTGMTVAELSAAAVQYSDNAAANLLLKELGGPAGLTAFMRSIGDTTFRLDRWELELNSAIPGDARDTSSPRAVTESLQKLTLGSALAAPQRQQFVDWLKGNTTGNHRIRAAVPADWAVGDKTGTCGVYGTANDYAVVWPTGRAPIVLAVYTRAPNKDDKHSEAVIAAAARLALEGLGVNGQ
T1 sequence (P0A3M1 22-286): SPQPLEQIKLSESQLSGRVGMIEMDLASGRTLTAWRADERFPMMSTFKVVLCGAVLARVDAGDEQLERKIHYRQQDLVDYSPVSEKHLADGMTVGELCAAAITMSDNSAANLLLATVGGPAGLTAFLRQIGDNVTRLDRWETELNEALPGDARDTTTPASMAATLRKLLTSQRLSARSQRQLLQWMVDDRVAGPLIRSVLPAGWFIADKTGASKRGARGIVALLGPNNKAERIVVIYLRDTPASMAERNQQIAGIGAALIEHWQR

Consider `O=C(Cc1ccc2c(c1)CNC2)N[C@H]1Cc2cccc(C(=O)O)c2OB1O` [Example 36, (3R)-2-hydroxy-3-[(2-isoindolin-5-ylacetyl)amino]-3,4-dihydro-1,2-benzoxaborinine-8-carboxylic acid], for which the IC50 in test [1] was < 100 nM; in test [2] it was < 100 nM; in test [3] it was 100 to 1000 nM; in test [4] it was < 100 nM; in [5] it was < 100 nM. Besides, the MIC in test [6] was < 4 µg/mL; in test [7], < 4 µg/mL; in test [8], < 4 µg/mL; in test [9], < 4 µg/mL; in test [10], > 32 µg/mL; in [11], < 4 µg/mL.
As for `NCCNc1ccc(CC(=O)N[C@H]2Cc3cccc(C(=O)O)c3OB2O)cn1` [Example 60, (R)-3-(2-(6-(2-aminoethylamino)pyridin-3-yl)acetamido)-2-hydroxy-3,4-dihydro-2H-benzo[e][1,2]oxaborinine-8-carboxylic acid], in test [3], the IC50 is 100 to 1000 nM. Further, the minimum inhibitory concentration (MIC) in test [6] is < 4 µg/mL; in [7] it was < 4 µg/mL; in [8], < 4 µg/mL; in test [9] it was < 4 µg/mL; in test [10] it was 8 to 32 µg/mL; in [11], < 4 µg/mL.
As for `NCCNc1ccc(CC(=O)N[C@H]2Cc3cccc(C(=O)O)c3OB2O)c[n+]1[O-]` [Example 61, (R)-2-(2-aminoethylamino)-5-(2-(8-carboxy-2-hydroxy-3,4-dihydro-2H-benzo[e][1,2]oxaborinin-3-ylamino)-2-oxoethyl)pyridine 1-oxide], in test [3], the IC50 fell in the range of 100 to 1000 nM. Also, the MIC in [6], in test [7], in test [8], in test [9], in test [10] and in test [11] was < 4 µg/mL in each case.
Take `NCc1cc(C(=O)N[C@H]2Cc3cccc(C(=O)O)c3OB2O)cnc1CN` [Example 62, (R)-3-(5,6-bis(aminomethyl)nicotinamido)-2-hydroxy-3,4-dihydro-2H-benzo[e][1,2]oxaborinine-8-carboxylic acid]: in test [3], the IC50 fell in the range of 100 to 1000 nM. Further, the MIC in test [6], in test [7], in [8], in [9], in [10] and in [11] was < 4 µg/mL throughout.
`NCc1cnc(C(=O)N[C@H]2Cc3cccc(C(=O)O)c3OB2O)cc1CN` [Example 63]: the IC50 in [3] was < 100 nM. Besides, the MIC in test [6], in test [7], in test [8], in test [9], in test [10] and in test [11] was < 4 µg/mL throughout.
